Test results from US9566224B2, “Tyrosinase inhibitors” (Avon Products, Inc., priority 2013, dated 2017).

Test system: Mushroom tyrosinase
Assay: Mushroom tyrosinase assay (conversion of L-Tyrosine to DOPAchrome)
Assay type: biochemical
Conditions: 25° C., 30 min, absorbance 492 nm
Description: Mushroom Tyrosinase Assay. Mushroom tyrosinase and L-Tyrosine were obtained from Sigma-Aldrich, Inc. (St. Louis, Mo.). The enzyme activity was measured in buffer containing 100 mM phosphate buffer pH 6.8, 5% absolute ethanol, 2 micrograms/milliliter mushroom tyrosinase, and 0.2 mg/ml L-Tyrosine. The reaction (conversion of L-Tyrosine to DOPAchrome) was conducted in triplicates at 25° C. for 30 min, and absorbance was then measured at 492 nm. Kojic Acid was used as a positive control inhibitor in these assays. Percent change in tyrosinase activity relative to vehicle control was calculated.

Question: With Oc1ccc(C=NNC(=S)NCC2CCCO2)c(O)c1 (centres unmarked) [AV6989] as the molecule, how does the “Tyrosinase Inhibition (percent change in tyrosinase activity compared to DMSO vehicle control)” value (concentration 0.001%) read?
Answer: Its value is −36%.

Question: And the “Tyrosinase Inhibition (percent change in tyrosinase activity compared to DMSO vehicle control)” value (concentration 0.01%)?
Answer: The value was −75%.
